In patent US9861653B2, “Synergistic anti-cancer composition and a process for the preparation thereof” (Council of Scientific and Industrial Research, priority 2012, dated 2018):
Entries after “also recorded” stand apart in the source; their conditions may differ.

Key:
[1] = system: ASPC-1 pancreatic cancer cells; assay: MTS viability assay on ASPC-1 pancreatic cancer cells; type: cell-based, human; details: 48 h or 72 h continuous treatment, ESC8 5 μM
Method: (§1) Cells were treated for 48 h with a) DX-ESC8+NRP-1 ShRNA plasmid, b) DX-ESC8+control plasmid, c) DO-ESC8+NRP-1 ShRNA plasmid, d) DX+NRP-1 ShRNA plasmid, followed by ESC8 treatment e) ESC8, as free drug at the drug concentration of 5 μM in either naked or respective formulated state. The % of viabilities of treated cells (Y-axis) were calculated with respect to untreated cells [* denotes p<0.01 between DX-ESC8 lipoplex groups with other groups].
Cells were treated for 72 h with a) DX-ESC8+NRP-1 ShRNA plasmid, b) DX-ESC8+control plasmid, c) DX+NRP-1 ShRNA plasmid, d) DO+NRP-1 ShRNA plasmid e) ESC8, as free drug at the drug concentration of 5 μM in either naked or respective formulated state. For groups c and d the liposome concentrations of DX or DO were equivalent to the corresponding liposome concentration in DX-ESC8 containing 5 μM ESC8. The % of viabilities of treated cells (Y-axis) were calculated with respect to untreated cells [* denotes p<0.01 between DX-ESC8 lipoplex groups or DX+NRP-1 ShRNA plasmid group with other groups].
Cancer cells (ANV-1, PANC-1, ASPC-1) were inoculated at a concentration of 5000 cells/well of 96-well cell culture plates in 10% Fetal Calf serum (FCS) containing DMEM media. […]

[2] = system: ANV-1 breast cancer cells with CSC-like property; assay: MTS viability assay on ANV-1 breast cancer cells; type: cell-based, mouse
Method: The % of viabilities of treated cells (Y-axis) were calculated with respect to untreated cells [* denotes p<0.001 between DX-ESC8+NRP-1 group with other groups]
Cells were treated with a) DX-nutilin+NRP-1 ShRNA plasmid, b) DX-nutilin+control plasmid, c) DX+NRP-1 ShRNA plasmid, d) nutilin as free drug. The treatments were done in two different conditions, a) continuous treatment for 48 h by the respective formulations with […] effective nutilin concentration; b) treatment for only 4 h by respective formulations with […] effective nutilin concentrations. The % viabilities of treated cells (Y-axis) were calculated with respect to untreated cells.
(§2) Cancer cells (ANV-1, PANC-1, ASPC-1) were inoculated at a concentration of 5000 cells/well of 96-well cell culture plates in 10% Fetal Calf serum (FCS) containing DMEM media. Following an incubation of minimum of 16 h at 37° C., the cells were treated in triplicate with respective lipoplexes (DX-ESC8, DO-ESC8, DX,) pre-complexed with 0.3 μg of NRP-1 or control plasmid amounts per well as discussed in Example 1. The cells were also treated with naked liposomes with or without ESC8 or free drug, ESC8, in a final volume of 300 μl (volume made up with 10% FCS containing DMEM media) continuously for 48 h (mostly) or 72 h. […] Thereafter cells were assayed for viability using MTS assay kit (Promega) following manufacturer's protocol.
For cells treated with DX-nutilin, the test solutions were: a) DX-nutilin pre-complexed with 0.3 µg of NRP-1 Sh-RNA plasmid, b) […] pre-complexed with 0.3 µg control plasmid, c) DX liposome pre-complexed with 0.3 µg NRP-1 Sh-RNA plasmid, d) only […] addition.

[3] = system: PANC-1 pancreatic cancer cells; assay: MTS viability assay on PANC-1 pancreatic cancer cells; type: cell-based, human; details: 48 h, ESC8 5 or 2.5 μM
Method: as §1, with “DO-ESC8+NRP-1,” for “DO-ESC8+NRP-1 ShRNA plasmid,”, “DO-ESC8+control plasmid” for “DX+NRP-1 ShRNA plasmid, followed by ESC8 treatment”, “concentrations” for “concentration”, “5 or 2.5” for “5”
as §2

CCCCCCCC[N+](C)(CCCCCCCC)CCC[C@]1(O)CC[C@H]2[C@@H]3CCc4cc(O)ccc4[C@H]3CC[C@@]21C [ESC8, 17-α-[3-(N,N-dioctyl,N-methyl-amino)-propan-1-yl]-17β-estradiol]
killing / anticancer effect on ASPC-1 cells [1]: no anticancer effect; also recorded: least toxic effect
anticancer effect towards ANV-1 breast cancer cells ([2]; 48 h, ESC8 10 or 5 μM naked or formulated (FIG. 1)): very limited effect; also recorded: least anticancer effect
viability of ANV-1 cells ([2]; 48 h treatment, drug concentration 10 or 5 μM, with respect to untreated cells (FIG. 1)): 60-70%
ESC8 free drug concentration needed to get 95-100% of ANV-1 cell killing ([2]; 72 h treatment): at least 50 μM
visual effect on ANV-1 cells ([2]; shorter treatment time): no visual effect
anti-cancer effect on PANC-1 cells [3]: no anticancer effect; also recorded: no toxicity
